Assay results reported in article PMC11831592, “Repurposing Linezolid in Conjunction with Histone Deacetylase Inhibitor Access in the Realm of Glioblastoma Therapies” (Journal of Medicinal Chemistry, 2025).

Assays:
[1] = tested on: TMZ-resistant GBM cell lines A172R and PT#3R; experiment: MTT cytotoxicity assay, TMZ-resistant GBM lines (statement in words); assay type: cell-based; details: 0 to 80 μM, 72 h
Experimental: We utilized linezolid as the structural foundation to confirm the cytotoxicity of linezolid-conjugated functional domains against glioblastoma (GBM). We combined it with the binding structures of anti-histone deacetylases (HDACs) (denoted as compounds 1–5 and 11–14), antitubulin (compound 6), anticyclooxygenase (COX) (compound 7), and anti-heat shock protein 90 (Hsp90) (compounds 8–10). These constructs were then administered to TMZ-resistant GBM cell lines A172R and PT#3R at concentrations ranging from 0 to 80 μM over 72 h. The cytotoxic effects of these compounds were assessed using the MTT assay (Table 1 and Supporting Information IV). […] Given the remarkable cytotoxicity of compound 1 on both A172-R and PT#3-R TMZ-resistant cells, this study subsequently focused on compound 1 for further in-depth investigation and mechanistic exploration. To validate that the cytotoxic effect of compound 1 on GBM is not attributed to linezolid alone, we separately treated the TMZ-resistant GBM cell line PT#3-R with compound 1 and linezolid. […] This confirms that the cytotoxicity of compound 1 against GBM is primarily attributable to the inhibitory structure of linezolid-conjugated HDAC (Figure 2A). Furthermore, we compared the cytotoxic effects of compound 1 on various wild-type brain tumor cell lines, including U87MG, PT#3, LN229 GBM cells, and CT-2A mouse astrocyte cell line as well as TMZ-resistant variants cell lines, including U87MG-R, PT#3-R, CT-2A-R, and T98G (MGMT-positive). […] Additionally, we further confirmed the efficacy of compound 1 in GBM treatment.
MTT assay was employed to evaluate the cytotoxicity of the synthesized compound against resistant GBM cells. The MTT (3-(4,5-dimethylthiazol-2-yl)-2,5-diphenyltetrazolium bromide, catalog no. AM0818-0005) powder was purchased from BIONOVAS (Ontario, Canada). The MTT was prepared at 10 mg/mL stock with ultrapure water and then stored at −20 °C. […] Finally, 100 μL of the mixture was transferred to measure the OD 595 nm absorbance.

[2] = tested on: PT#3-R; experiment: CCK8 cell proliferation assay, PT#3-R; assay type: cell-based; details: Homo sapiens, CCK8, 72 h
Experimental: (§1) Cell viability and drug cytotoxicity were determined by a CCK-8 kit (Cell Counting Kit-8, CK04-13, MD, USA) (CCK8, C0005, Target Molecule Corp., MA, USA) reagent. Cells were seeded 2 × 10^3 per well in the 96-well plate for 24 h, followed by treating at different concentrations of compounds for 72 h. Before the experiment, CCK8 was 10-fold diluted with the culture medium and then incubated with cells for 30 min. Finally, the OD was 450 nm absorbance and calculated for cell viability.

[3] = tested on: T98G (MGMT-positive); experiment: CCK8 cell proliferation assay, T98G; assay type: cell-based; details: Homo sapiens, CCK8, 72 h
Experimental: as §1

[4] = target: T1, HDAC1 (Homo sapiens, UniProt Q13547); experiment: HDAC enzyme inhibition assay, HDAC1; assay type: biochemical; details: 10-dose, 3-fold serial dilution starting at 10 μM
T1 construct: purchased Reaction Biology Corporation, Malvern, PA (contract assay service)
T1 sequence (Q13547 whole entry): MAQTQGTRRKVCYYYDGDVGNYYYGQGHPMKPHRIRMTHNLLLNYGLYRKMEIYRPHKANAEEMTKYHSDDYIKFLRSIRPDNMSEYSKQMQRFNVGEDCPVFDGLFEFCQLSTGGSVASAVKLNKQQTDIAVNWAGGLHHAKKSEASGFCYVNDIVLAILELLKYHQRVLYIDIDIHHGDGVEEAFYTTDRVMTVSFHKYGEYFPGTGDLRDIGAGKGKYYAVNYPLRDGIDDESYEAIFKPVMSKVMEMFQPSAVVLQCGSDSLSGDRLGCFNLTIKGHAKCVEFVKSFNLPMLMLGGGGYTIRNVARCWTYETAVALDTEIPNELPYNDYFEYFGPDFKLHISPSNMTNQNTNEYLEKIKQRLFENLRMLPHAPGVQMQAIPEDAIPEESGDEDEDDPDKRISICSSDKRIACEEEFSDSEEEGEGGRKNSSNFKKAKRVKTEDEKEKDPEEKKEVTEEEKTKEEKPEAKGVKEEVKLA
Experimental: Enzyme inhibition assays were performed by the Reaction Biology Corporation, Malvern, PA (http://www.reactionbiology.com).

[5] = tested on: CT-2A astrocytoma cells; experiment: Orthotopic CT-2A tumor model, IVIS; assay type: in vivo, mouse; details: 10 mg/kg intraperitoneally
Experimental: Animals were imaged using an IVIS to monitor tumor growth and target expression changes. Initially, animals were anesthetized with isoflurane prior to imaging to minimize movement artifacts. D-luciferin (150 mg/kg) was then administered via an intraperitoneal injection. After 60 s, animals were positioned on the imaging platform, and images were acquired with a 10-s exposure. Experimental data were collected and quantified for fluorescence or bioluminescence signals by using Living Image software in the IVIS system. After each imaging session, animal ID, imaging parameters, and imaging time were recorded for subsequent analysis.
For orthotopic inoculation, CT-2A cells (1 × 10^5) or CT-2A-R (2 × 10^5) were suspended in 4 μL of DMEM and implanted into the brain of B6 mice. PT#3-R cells (5 × 10^5) were suspended in 4 μL of DMEM and implanted into the brain of SCID mice. After cell implantation, mice were monitored daily for survival, and their body weight was measured every 3 days starting from the seventh day. The oral vehicle consisted of 40% ethyl oleate, 12% lecithin, 20% propylene glycol, and 28% Triton X-100. Mice were administered 5 μL of vehicle per gram of body weight along with 50 mg/kg TMZ or a combination of TMZ and compound 1. […] Upon the natural death of the mice, brains were extracted and entrusted to BioTools for sectioning and HE staining.

[6] = tested on: PT#3-R GBM cells; experiment: Orthotopic PT#3-R transplant model, survival and HE staining; assay type: in vivo, mouse
Experimental: For orthotopic inoculation, CT-2A cells (1 × 10^5) or CT-2A-R (2 × 10^5) were suspended in 4 μL of DMEM and implanted into the brain of B6 mice. PT#3-R cells (5 × 10^5) were suspended in 4 μL of DMEM and implanted into the brain of SCID mice. After cell implantation, mice were monitored daily for survival, and their body weight was measured every 3 days starting from the seventh day. […] […] […] Upon the natural death of the mice, brains were extracted and entrusted to BioTools for sectioning and HE staining.

O=C(/C=C/c1ccc(CNC[C@H]2CN(c3ccc(N4CCOCC4)c(F)c3)C(=O)O2)cc1)NO [compound 1, (S,E)-3-(4-((((3-(3-Fluoro-4-morpholinophenyl)-2-oxooxazolidin-5-yl)methyl)ami-no)methyl)phenyl)-N-hydroxyacrylamide]
cytotoxicity in TMZ-resistant GBM [1]: exhibited the capacity to induce cytotoxicity | IC50 [2]: 11.1 ± 0.57 µM | IC50 [3]: 30.6 ± 0.56 µM | IC50 [4]: 1.09 µM | growth of orthotopic tumors (IVIS) [5]: effectively inhibited the growth of orthotopic tumors | survival (Kaplan-Meier) ([6]; PT#3-R in SCID mice, 10 or 20 mg/kg with 10 mg/kg TMZ, intraperitoneal every 3 days from day 7): extend the survival rate | TMZ-resistant GBM cell growth in the brain (HE staining) ([6]; PT#3-R, post-mortem brain tissue sections): effective inhibition of TMZ-resistant GBM cell growth in the brain
